Measurements published in patent publication US20060189576A1, “Substituted vitamin d analogues and their therapeutic uses” (priority 2003, published 2006).
Where two headings read alike, the source gives them in different places.

Legend:
[1] = for Femur calcium: NMRI mice, 7 consecutive days; for IN VIVO STUDIES Osteocalcin serum: mice, daily intraperitoneal injection 7 consecutive days, percentage activity vs 1α,25(OH)2D3 (=100%); for IN VIVO STUDIES Calcium serum / IN VIVO STUDIES Calcium urine / Serum calcium in mice: ip
Experimental: Eight weeks old, male NMRI mice were obtained from the Proefdierencentrum of Leuven (Belgium) and fed a vitamin D-replete diet (0.2% calcium, 1% phosphate, 2000 U vitamin D/kg; Hope Farms, Woerden, The Netherlands). […] The control group was injected with vehicle (arachis oil). The average weight of each group of 6 mice was determined at the beginning and at the end of the experiment. The following parameters were evaluated: serum calcium, serum osteocalcin, femur calcium and urinary calcium. Serum and urinary calcium were measured by a microcolorimetric assay (Sigma, St. Louis, Mo.). Femurs were removed and femur calcium content was measured in HCl-dissolved bone ash (obtained by heating for 24 h in an oven at 100° C.), using the same technique as for serum and urinary calcium.

MCF-7 cells = experiment: MCF-7 cell proliferation ([3H]thymidine incorporation); assay type: cell-based; conditions: for IN VITRO STUDIES MCF-7: antiproliferative action, percentage activity vs 1α,25(OH)2D3 (=100%); for Antiproliferative activity on MCF-7 cells: percentage activity (at 50% of the dose response) vs 1α,25(OH)2D3 (=100%); for antiproliferative effect (in words) / antiproliferative activity, times that of 1α,25(OH)2D3: MCF-7 cells
Experimental: To evaluate the effect of on cell proliferation, malignant MCF-7 cells were cultured in DMEM/nut. mix. […] Cultures were maintained at 37° C. in a humidified atmosphere of 5% CO2 in air. MCF-7 cells were seeded at 5×10^3 cells/well in the above described medium in 96-well microtiter plates in a final volume of 0.2 ml per well. Triplicate cultures were performed. […] Then, 1 μCi [^3H]thymidine was added to each well and cells were harvested after 4 h incubation with a Packard harvester and measured by the Packard Topcount System (Packard, Meriden, USA).

HL-60 cells = experiment: HL-60 cell differentiation (NBT reduction assay); assay type: cell-based; conditions: for IN VITRO STUDIES HL 60: potency to differentiate HL 60 cells, percentage activity vs 1α,25(OH)2D3 (=100%)
Experimental: To evaluate the effect on cell differentiation HL-60 cells were seeded at 4×10^4 cells/ml in 25 cm^2 Falcon tissue chambers using RPMI 1640 medium supplemented with 20% FCS and gentamycin (50 μg/ml) in a final volume of 5 ml. Cultures were maintained at 37° C. in a humidified atmosphere of 5% CO2 in air. […] After 4 days of culture, the dishes were shaken to lose adherent cells. Cells were washed twice in RPMI, counted and assayed for differentiation markers (NBT reduction assay). Superoxide production was measured as NBT reducing activity as described previously (Ostrem V. K et al. Proc Natl Acad Sci USA 84: 2610-2614, 1987). HL-60 cells at 1×10^6/ml were mixed with an equal volume of freshly prepared solution of phorbol 12-myristate 13-acetate (200 ng/ml) and […] and incubated for 30 min at 37° C. The percentage of cells containing black formazan deposits was determined using a hemacytometer.

hDBP = target: T1, hDBP (Homo sapiens, UniProt P02774); experiment: Affinity for human DBP: competition with [3H]1α,25(OH)2D3; assay type: binding; conditions: percentage activity (at 50% of the dose response) in comparison with 1α,25(OH)2D3 (=100%)
T1 sequence (P02774 17-474): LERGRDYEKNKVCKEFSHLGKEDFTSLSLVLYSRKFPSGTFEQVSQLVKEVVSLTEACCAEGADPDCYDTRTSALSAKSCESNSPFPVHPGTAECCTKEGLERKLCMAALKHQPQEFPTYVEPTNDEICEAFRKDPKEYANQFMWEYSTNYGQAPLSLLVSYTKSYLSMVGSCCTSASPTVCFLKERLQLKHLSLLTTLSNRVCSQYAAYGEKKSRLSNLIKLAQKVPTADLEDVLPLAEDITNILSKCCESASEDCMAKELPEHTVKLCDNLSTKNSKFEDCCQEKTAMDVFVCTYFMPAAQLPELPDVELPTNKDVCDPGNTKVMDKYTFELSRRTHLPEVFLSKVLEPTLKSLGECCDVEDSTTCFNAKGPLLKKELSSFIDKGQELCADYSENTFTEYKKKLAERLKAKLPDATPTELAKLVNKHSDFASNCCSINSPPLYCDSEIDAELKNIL
Experimental: Phase separation was then obtained by the addition of 0.5 ml of cold dextran-coated charcoal.

vitamin D receptor = target: T2, vitamin D receptor (Sus scrofa, UniProt A3RGC1); conditions: percentage activity (at 50% of the dose response) in comparison with 1α,25(OH)2D3 (=100%)
T2 sequence (A3RGC1 1-427): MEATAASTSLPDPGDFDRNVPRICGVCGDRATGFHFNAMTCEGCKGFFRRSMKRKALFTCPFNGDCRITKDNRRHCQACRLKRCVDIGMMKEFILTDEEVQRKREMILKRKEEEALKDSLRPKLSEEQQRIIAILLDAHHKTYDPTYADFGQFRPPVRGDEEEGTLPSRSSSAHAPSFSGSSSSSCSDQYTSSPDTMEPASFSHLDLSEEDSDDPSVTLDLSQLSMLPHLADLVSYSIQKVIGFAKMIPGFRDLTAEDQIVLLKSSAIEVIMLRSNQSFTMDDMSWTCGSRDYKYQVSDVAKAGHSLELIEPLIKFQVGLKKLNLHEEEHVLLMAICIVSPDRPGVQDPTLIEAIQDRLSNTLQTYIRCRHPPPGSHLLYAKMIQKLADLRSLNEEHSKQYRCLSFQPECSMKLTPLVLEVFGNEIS
Experimental: The incubation was performed at 4° C. for 20 h and phase separation was obtained by addition of dextran-coated charcoal.

| SMILES | Femur calcium ([1]; 0.1 μg/kg/d intraperitoneally) [mg] | Femur calcium ([1]; 0.2 μg/kg/d intraperitoneally) [mg] | Femur calcium ([1]; 0.4 μg/kg/d intraperitoneally) [mg] | IN VIVO STUDIES Osteocalcin serum [1] [%] | IN VIVO STUDIES Calcium serum ([1]; mouse, in vivo) [%] | IN VIVO STUDIES Calcium urine ([1]; mouse, in vivo) [%] | Serum calcium in mice ([1]; mouse, in vivo) [%] | IN VITRO STUDIES MCF-7 (MCF-7 cells) [%] | Antiproliferative activity on MCF-7 cells (MCF-7 cells) [%] | IN VITRO STUDIES HL 60 (HL-60 cells) [%] | times less active than the parent compound to inhibit MCF-7 cell proliferation (MCF-7 cells; parent compound 1α,25(OH)2D3) [times] | AFFINITY STUDIES DBP (hDBP) [%] | prodifferentiating effect (in words) (HL-60 cells; HL 60 cells) | AFFINITY STUDIES VDR (vitamin D receptor) [%] | further reduction of calcemic activity by the 2β counterpart ([1]; mouse, in vivo) [fold] | antiproliferative effect (in words) (MCF-7 cells) | antiproliferative activity, times that of 1α,25(OH)2D3 (MCF-7 cells) [times] | prodifferentiating activity, times that of 1α,25(OH)2D3 (HL-60 cells; HL 60 cells) [times] | increase of capacity to inhibit the proliferation of MCF-7 cells on introduction of the 23-yne side chain (MCF-7 cells; compared with analogue 102) [times] |
| --- | --- | --- | --- | --- | --- | --- | --- | --- | --- | --- | --- | --- | --- | --- | --- | --- | --- | --- | --- |
| C=C1/C(=C\C=C2/CCC[C@]3(C)[C@@H]([C@H](C)CCCC(C)(C)O)CC[C@@H]23)C[C@@H](O)C[C@@H]1O [1α,25(OH)2D3, 1α,25-dihydroxyvitamin D3, reference compound] | 8.9 ± 0.50 | 9.23 ± 0.31 | 8.75 ± 0.15 | 100 | 100 | 100 | 100 | 100 | 100 | 100 | – | – | – | – | – | – | – | – | – |
| C[C@H](CCCC(C)(C)O)[C@H]1CC[C@@H]2/C(=C/C=C3C[C@@H](O)C[C@H](O)C3)CCC[C@@]21C [14-epi-19-nor-1α,25(OH)2D3, reference compound] | – | – | – | – | 0.3 | 0.4 | – | 30 | – | 50 | 3 | 15 | half as potent as the parent compound | 19 | – | – | – | – | – |
| CC(CCCC(C)(C)O)C1CCC2C(=CC=C3CC(O)C(C)C(O)C3)CCCC21C (stereo not drawn) [Compound 101, 2β-methyl-19-nor-1α,25-dihydroxyvitamin D3] | – | – | – | – | 0.5 | – | – | 80 | – | 70 | – | 9 | less potent than 1α,25(OH)2D3 | 75 | 80 | less potent than 1α,25(OH)2D3 | – | – | – |
| CC(CCCC(C)(C)O)C1CCC2C(=CC=C3CC(O)C(C)C(O)C3)CCCC21C (stereo not drawn) [Compound 102, 2α-methyl-19-nor-1α,25-dihydroxyvitamin D3] | – | – | – | 15 | 40 | – | – | 400 | – | 1000 | – | 50 | very potent | 90 | – | very potent | 4 | 10 | – |
| CC(CC#CC(C)(C)O)C1CCC2C(=CC=C3CC(O)C(C)C(O)C3)CCCC21C (stereo not drawn) [Compound 103, 2β-methyl-19-nor-23-yn-1α,25-dihydroxyvitamin D3] | – | – | – | 0.8 | 0.4 | 1.6 | 0.4 | 900 | 900 | 100 | – | 1 | – | 20 | – | – | – | – | – |
| CC(CC#CC(C)(C)O)C1CCC2C(=CC=C3CC(O)C(C)C(O)C3)CCCC21C (stereo not drawn) [Compound 104, 2α-methyl-19-nor-23-yn-1α,25-dihydroxyvitamin D3] | – | – | – | 4 | 10 | – | – | 10500 | – | 1500 | – | 4 | very potent | 70 | – | very potent | 100 | – | 26 |
| CC(CCCC(C)(C)O)C1CCC2C(=CC=C3CC(O)C(C)C(O)C3)CCCC21C (stereo not drawn) [Compound 105, 14-epi-2β-methyl-19-nor-1α,25-dihydroxyvitamin D3] | – | – | – | 0.8 | 0.4 | 0.4 | – | 20 | – | 75 | – | 7 | – | 60 | – | – | – | – | – |
| CC(CCCC(C)(C)O)C1CCC2C(=CC=C3CC(O)C(C)C(O)C3)CCCC21C (stereo not drawn) [Compound 106, 14-epi-2α-methyl-19-nor-1α,25-dihydroxyvitamin D3] | – | – | – | 13 | 13 | 6 | – | 900 | – | 600 | – | 9 | very potent | 90 | – | very potent | – | – | – |
| CC(CC#CC(C)(C)O)C1CCC2C(=CC=C3CC(O)C(C)C(O)C3)CCCC21C (stereo not drawn) [Compound 107, 14-epi-2β-methyl-19-nor-23-yn-1α,25-dihydroxyvitamin D3] | – | – | – | 0.8 | 0.4 | 1.6 | – | 350 | – | 400 | – | 0 | – | 10 | – | – | – | – | – |
| CC(CC#CC(C)(C)O)C1CCC2C(=CC=C3CC(O)C(C)C(O)C3)CCCC21C (stereo not drawn) [Compound 118, 1,14-bis-epi-2β-methyl-19-nor-23-yn-1α,25-dihydroxyvitamin-D3] | – | – | – | – | <0.25 | <0.25 | – | – | – | 0 | – | 3 | not active at all | 6 | – | – | – | – | – |
| CC(CC#CC(C)(C)O)C1CCC2C(=CC=C3CC(O)C(C)C(O)C3)CCCC21C (stereo not shown) [Compound 141] | – | – | – | – | – | – | – | 4500 | – | 1500 | – | – | very potent | 9 | – | very potent | – | – | – |
| CCC1C(O)CC(=CC=C2CCCC3(C)C2CCC3C(C)CC#CC(C)(C)O)CC1O (stereo not shown) [Compound 142] | – | – | – | – | – | – | – | 1500 | – | 400 | – | – | very potent | 10 | – | very potent | – | – | – |
